Test: Organ distribution of Indium-113m EDTMP and DTPMP complexes in rabbits, simultaneous study with Strontium-85
Type: in vivo, adult albino rabbits
Details: DTPMP group; for % Dose/1% Bodyweight, Average Bone: mean of femur, tibia, spine and pelvis; for % Dose in Whole Organ, Blood / % Dose in Whole Organ, Kidney / % Dose in Whole Organ, Liver / % Dose in Whole Organ, Marrow / % Dose in Whole Organ, Muscle / % Dose in Whole Organ, One Femur / % Dose in Whole Organ, One Tibia / % Dose in Whole Organ, Urine / % Dose/1% Bodyweight, Blood / % Dose/1% Bodyweight, Femur / % Dose/1% Bodyweight, Kidney / % Dose/1% Bodyweight, Liver / % Dose/1% Bodyweight, Marrow / % Dose/1% Bodyweight, Muscle / % Dose/1% Bodyweight, Pelvis / % Dose/1% Bodyweight, Spine / % Dose/1% Bodyweight, Tibia / Ratio Bone/Blood / Ratio Bone/Marrow / Ratio Bone/Muscle: rabbit i.v.
Procedure: 0.5-1.0 mCi of the complexes prepared according to Examples 1 and 4 (containing 2-5 mg of the phosphonate complex) were injected intravenously into adult albino rabbits weighing 3.5-5 kg. […] Organ distribution characteristics of these compositions were determined after sacrificing the animals 1-4 hours after injection using the method described in Perez et al, J. Nucl. Med. 13:788-789, 1972; Subramanian et al, Radiology, 98:192-196, 1971; Subramanian et al, Radiology, 102:701-704, 1972; Subramanian et al, J. Nucl. Med., 13:947-950, 1972; Tofe et al, J. Nucl. Med., 15:69-74, 1974; Yano, J. Nucl Med., 14:73-78, 1973; Castronova et al, J. Nucl. Med., 13:823-827, 1972; and Subramanian et al, J. Nucl. Med., August, 1975 (U.S. application Ser. No. 368,473, filed June 11, 1973). Appropriate corrections were made for Strontium-85 contributions in the Indium-113m windows.
For each time interval 3 animals were used and average values are set forth. The average bone concentrations expressed as % dose/1% body weight: […]
% dose/1% body weight [formula] are the mean of the concentrations in bone samples from femur, tibia, spine and pelvis. This value was calculated for individual rabbits and the mean value of these averages are shown. The values for ratios were calculated in a similar manner.
With respect to Table 1, Strontium 85 was employed as a biological standard to compare the uptake in various organs of individual groups of animals. In quantifying the bone uptake, it is necessary to compare more than merely the indium concentration from one group to another. In addition, the ratios of indium to strontium from each group should be compared because of the individual variation of bone uptake in animals.

O=P(O)(O)CN(CCN(CP(=O)(O)O)CP(=O)(O)O)CCN(CP(=O)(O)O)CP(=O)(O)O [DTPMP, diethylene triamine penta(methylene phosphonic) acid]
% Dose/1% Bodyweight, Average Bone (1 Hr.): 5.14 % Dose/1% Bodyweight | % Dose in Whole Organ, Blood (1 Hr.): 8.61 % Dose | % Dose in Whole Organ, Kidney (1 Hr.): 2.43 % Dose | % Dose in Whole Organ, Liver (1 Hr.): 0.702 % Dose | % Dose in Whole Organ, Marrow (1 Hr.): 0.710 % Dose | % Dose in Whole Organ, Muscle (1 Hr.): 4.61 % Dose | % Dose in Whole Organ, One Femur (1 Hr.): 0.782 % Dose | % Dose in Whole Organ, One Tibia (1 Hr.): 0.641 % Dose | % Dose in Whole Organ, Urine (1 Hr.): 31.2 % Dose | % Dose/1% Bodyweight, Blood (1 Hr.): 1.23 % Dose/1% Bodyweight | % Dose/1% Bodyweight, Femur (1 Hr.): 3.57 % Dose/1% Bodyweight | % Dose/1% Bodyweight, Kidney (1 Hr.): 5.62 % Dose/1% Bodyweight | % Dose/1% Bodyweight, Liver (1 Hr.): 0.276 % Dose/1% Bodyweight | % Dose/1% Bodyweight, Marrow (1 Hr.): 0.322 % Dose/1% Bodyweight | % Dose/1% Bodyweight, Muscle (1 Hr.): 0.107 % Dose/1% Bodyweight | % Dose/1% Bodyweight, Pelvis (1 Hr.): 7.15 % Dose/1% Bodyweight | % Dose/1% Bodyweight, Spine (1 Hr.): 4.80 % Dose/1% Bodyweight | % Dose/1% Bodyweight, Tibia (1 Hr.): 3.39 % Dose/1% Bodyweight | Ratio Bone/Blood (1 Hr.): 4.17 | Ratio Bone/Marrow (1 Hr.): 15.9 | Ratio Bone/Muscle (1 Hr.): 48.0 | % Dose/1% Bodyweight, Average Bone (2 Hr.): 4.58 % Dose/1% Bodyweight | % Dose in Whole Organ, Blood (2 Hr.): 3.88 % Dose | % Dose in Whole Organ, Kidney (2 Hr.): 1.09 % Dose | % Dose in Whole Organ, Liver (2 Hr.): 0.453 % Dose | % Dose in Whole Organ, Marrow (2 Hr.): 0.340 % Dose | % Dose in Whole Organ, Muscle (2 Hr.): 1.92 % Dose | % Dose in Whole Organ, One Femur (2 Hr.): 0.648 % Dose | % Dose in Whole Organ, One Tibia (2 Hr.): 0.519 % Dose | % Dose in Whole Organ, Urine (2 Hr.): 65.7 % Dose | % Dose/1% Bodyweight, Blood (2 Hr.): 0.555 % Dose/1% Bodyweight | % Dose/1% Bodyweight, Femur (2 Hr.): 3.07 % Dose/1% Bodyweight | % Dose/1% Bodyweight, Kidney (2 Hr.): 2.40 % Dose/1% Bodyweight | % Dose/1% Bodyweight, Liver (2 Hr.): 0.173 % Dose/1% Bodyweight | % Dose/1% Bodyweight, Marrow (2 Hr.): 0.154 % Dose/1% Bodyweight | % Dose/1% Bodyweight, Muscle (2 Hr.): 0.044 % Dose/1% Bodyweight | % Dose/1% Bodyweight, Pelvis (2 Hr.): 6.15 % Dose/1% Bodyweight | % Dose/1% Bodyweight, Spine (2 Hr.): 4.59 % Dose/1% Bodyweight | % Dose/1% Bodyweight, Tibia (2 Hr.): 2.92 % Dose/1% Bodyweight | Ratio Bone/Blood (2 Hr.): 8.25 | Ratio Bone/Marrow (2 Hr.): 29.7 | Ratio Bone/Muscle (2 Hr.): 104 | % Dose/1% Bodyweight, Average Bone (4 Hr.): 4.79 % Dose/1% Bodyweight | % Dose in Whole Organ, Blood (4 Hr.): 3.08 % Dose | % Dose in Whole Organ, Kidney (4 Hr.): 1.03 % Dose | % Dose in Whole Organ, Liver (4 Hr.): 0.354 % Dose | % Dose in Whole Organ, Marrow (4 Hr.): 0.432 % Dose | % Dose in Whole Organ, Muscle (4 Hr.): 1.92 % Dose | % Dose in Whole Organ, One Femur (4 Hr.): 0.621 % Dose | % Dose in Whole Organ, One Tibia (4 Hr.): 0.471 % Dose | % Dose in Whole Organ, Urine (4 Hr.): 69.9 % Dose | % Dose/1% Bodyweight, Blood (4 Hr.): 0.441 % Dose/1% Bodyweight | % Dose/1% Bodyweight, Femur (4 Hr.): 2.97 % Dose/1% Bodyweight | % Dose/1% Bodyweight, Kidney (4 Hr.): 2.28 % Dose/1% Bodyweight | % Dose/1% Bodyweight, Liver (4 Hr.): 0.184 % Dose/1% Bodyweight | % Dose/1% Bodyweight, Marrow (4 Hr.): 0.196 % Dose/1% Bodyweight | % Dose/1% Bodyweight, Muscle (4 Hr.): 0.044 % Dose/1% Bodyweight | % Dose/1% Bodyweight, Pelvis (4 Hr.): 6.37 % Dose/1% Bodyweight | % Dose/1% Bodyweight, Spine (4 Hr.): 5.16 % Dose/1% Bodyweight | % Dose/1% Bodyweight, Tibia (4 Hr.): 2.76 % Dose/1% Bodyweight | Ratio Bone/Blood (4 Hr.): 10.8 | Ratio Bone/Marrow (4 Hr.): 24.4 | Ratio Bone/Muscle (4 Hr.): 108

From patent US4017595A (Research Corporation, priority 1975, dated 1977)
